# Test system: penis
# Assay: Clinical study: penile temperature change by thermography
# Type: in vivo, human
# Conditions: intra-urethral infusion; FIG. 7
# Protocol: Five (5) healthcare workers of 60 to 69 years old having no early-morning erection were subjected to the study. After obtaining verbal informed consent, the study was carried out from May 2001 through February 2003 as described below.
# After keeping the subjects at rest with naked from the waist down for 5 minutes at room temperature of 25° C. and humidity of 60%, temperature of a penis, oxygen saturation in a penile sponge body, and hardness of a penis were measured. The measurement was carried out before administration of the preparation as reference and at 1, 3, 6, 12, 24 and 36 hours after administration, and the value of change (changed value±average error) were recorded. When there was no change at 3 hours after administration, the preparation was considered not effective and measurement thereafter was quitted.
# Embrocation: 0.5 ml of each preparation was applied all over to a glans and a penis.
# The relevant infusion apparatus was inserted into a urethra, and 0.5 ml of the preparation was infused by rotating a cylinder.
# Temperature rise reflects increased blood-flow. So, penile temperature was measured by a thermography (Thermo Tracer TH5108, NEC San-ei Instruments, Ltd.). As this instrument can display a measurement site and temperature of the site numerically on a screen, measurements before and after administrations were possible to be performed at the same position. […]
compound,measurement,value
"CC#CCC(C)[C@H](O)/C=C/[C@@H]1[C@H]2c3cccc(CCCC(=O)[O-])c3O[C@H]2C[C@H]1O.[Na+] (relative stereo) [beraprost sodium, (+)-(1R*,2R*,3aS*,8bS*)-2,3,3a,8b-tetrahydro-2-hydroxy-1-[(e)-(3S*)-3-hydroxy-4-methyl-1-octene-6-ynyl]-1H-cyclopenta [b]benzofuran-5-butanoic acid sodium salt]",level and duration of temperature increase,low

# Source: patent publication US20090062382A1, “EXTERNAL PREPARATION FOR IMPROVING COITAL FUNCTION” (CARDIOVASCULAR INSTITUTE, LTD., priority 2003, published 2009)
